Test results from patent US9566312B2, “Cyclic peptides and use as medicines” (priority 2012, dated 2017).
Read-outs that look alike come from different tables or passages of the source. Starred links: 1 amine or outer side, 2 acyl side, 3 side chain; linkers in the order of their positions; H or OH if unused. Non-standard residues stand in square brackets, D forms with d. Residues, ends and D or L forms follow the SMILES beside them. X61 = C[C@@H]1CN(CCOC[C@@H](C)[C@@H](C(=O)[*:2])N(C)[*:1])[C@H](C)CO1; X27 = C[C@H](COCC(=O)N1CCN(C2CCOCC2)CC1)[C@@H](C(=O)[*:2])N(C)[*:1]; X75 = C[C@H](CCC(C)(C)OC(=O)N1CCN(C)CC1)[C@@H](C(=O)[*:2])N(C)[*:1]; X45 = C[C@H](CCC(=O)N1CC2CCC(C1)O2)[C@@H](C(=O)[*:2])N(C)[*:1]; X54 = CCOC(=O)N1CCN(C[C@@H](C)[C@@H](C(=O)[*:2])N(C)[*:1])CC1; X73 = CO[C@H]1CCN(CCOC[C@@H](C)[C@@H](C(=O)[*:2])N(C)[*:1])C1; X78 = CC(C)N1CCN(CCOC[C@@H](C)[C@@H](C(=O)[*:2])N(C)[*:1])CC1; X49 = C[C@H](CCC(=O)N1CCN(C)CC1)[C@@H](C(=O)[*:2])N(C)[*:1]; X35 = C[C@H](CN1CCC2(CC1)OCCO2)[C@@H](C(=O)[*:2])N(C)[*:1]; X51 = C[C@H](CN1CCC2(COC2)C1)[C@@H](C(=O)[*:2])N(C)[*:1]; X50 = C[C@H](CN1CCNC(=O)C1)[C@@H](C(=O)[*:2])N(C)[*:1]; MeBmt = C/C=C/C[C@@H](C)[C@@H](O)[C@H](NC)C(=O)O; NMeL = CN[C@@H](CC(C)C)C(=O)O; NMeV = CN[C@H](C(=O)O)C(C)C; dNMeA = CN[C@H](C)C(=O)O; Abu = CC[C@H](N)C(=O)O

What was measured:
cyclophilin A (CypA) = cyclophilin A (CypA) (Homo sapiens (Human), UniProt P62937); test: Inhibitor binding to cyclophilin proteins by SPR, CypA; set-up: unit not given here; details: 1:1 binding model;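 note: Single-cycle kinetics on a Biacore T200, compound injected at several concentrations for 1 min each at 50 µL/min, then 10 min dissociation, in HEPES pH 7.4 buffer with 3% DMSO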
cyclophilin B (CypB) = cyclophilin B (CypB) (Homo sapiens (Human), UniProt P23284); test: Inhibitor binding to cyclophilin proteins by SPR, CypB; set-up: unit not given here; details: 1:1 binding model
Summary of the method: (§1)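 Mono-biotinylated avi-tagged cyclophilins captured on a Biotin CAPture chip. Single-cycle kinetics at 50 μL/min, 1 min contacts, 10 min final dissociation, in 10 mM HEPES pH 7.4, 150 mM NaCl, 0.05% P20, 3% DMSO. kon, koff and KD from a 1:1 binding model.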

CypF = CypF (Homo sapiens (Human), UniProt P30405); test: Inhibitor binding to cyclophilin proteins by SPR, CypF; details: 1:1 binding model
Summary of the method: as §1

[1] = test system: genotype 1b subgenomic HCV replicon in Huh7.5 cells; format: cell-based, hepatitis C virus; details: read-out: RPLN-1b IC50
Summary of the method: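 Replicon inhibition read as renilla luciferase signal versus DMSO controls after 72 h incubation, in Huh7.5 cells harbouring a genotype 1b subgenomic replicon; medium phenol red-free DMEM lacking G418. CC50 determined in parallel via Cell Titer-Glo.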

[2] = test system: peripheral blood mononuclear cells (PBMC); test: Anti-proliferative or immunosuppressive activity, BrdU incorporation in PHA-stimulated PBMC; format: cell-based; details: PHA 3 μg/ml, 60 hour compound treatment; read-out: EMV PBMC IC50
Summary of the method: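 BrdU ELISA read-out of DNA synthesis in freshly isolated PBMCs (two donors, 30,000 cells/well, X-VIVO 15). T-cell proliferation triggered with phytohemagglutinin at 3 μg/ml.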

[3] = biological target: organic anion transporting polypeptide 1B1 (OATP1B1) (Homo sapiens (Human), UniProt Q9Y6L6); test: OATP assay in CHO-OATP1B1 cells;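 note: inhibition of probe substrate uptake into the cells, ten minutes exposure, accumulated substrate read by fluorescence once cells were lysed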
Description: In order to determine whether the compounds of the present invention interact with hepatic transporters, experiments were carried out that compared the concentration-dependent inhibition toward the organic anion transporting polypeptide 1B1 (OATP1B1) and the multidrug resistance associated protein 2 (MRP2).
The cells were cultured in DMEM/F12 +10% FBS+2 mM Ala-Gln+1% Pen-Strep for a period of two days, and the media was changed one day post-seeding. Prior to the assay, media was aspirated and were washed −3× with HBSS+10 mM HEPES and the solution was equilibrated for 15 min in HBSS+10 mM HEPES. Solutions containing the inhibitor were prepared in HBSS+10 mM HEPES (up to 1% DMSO). […] After 10 min, the substrate or substrate/inhibitor solution was aspirated and the cells were washed 3× with HBSS+10 mM HEPES. The amount of the transported probe substrate was determined by fluorescent photometry after cell lysis, and the IC50 was derived from the concentration-response curve.

[4] = genotype 1b replicon, 72 h incubation

Chain of cyclophilin A (CypA) (P62937 whole entry): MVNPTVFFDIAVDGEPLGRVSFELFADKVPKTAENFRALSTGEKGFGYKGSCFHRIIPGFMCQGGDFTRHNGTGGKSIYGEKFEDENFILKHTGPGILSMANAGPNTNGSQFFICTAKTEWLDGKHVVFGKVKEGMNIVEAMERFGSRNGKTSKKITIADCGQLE
Chain of organic anion transporting polypeptide 1B1 (OATP1B1) (Q9Y6L6 whole entry): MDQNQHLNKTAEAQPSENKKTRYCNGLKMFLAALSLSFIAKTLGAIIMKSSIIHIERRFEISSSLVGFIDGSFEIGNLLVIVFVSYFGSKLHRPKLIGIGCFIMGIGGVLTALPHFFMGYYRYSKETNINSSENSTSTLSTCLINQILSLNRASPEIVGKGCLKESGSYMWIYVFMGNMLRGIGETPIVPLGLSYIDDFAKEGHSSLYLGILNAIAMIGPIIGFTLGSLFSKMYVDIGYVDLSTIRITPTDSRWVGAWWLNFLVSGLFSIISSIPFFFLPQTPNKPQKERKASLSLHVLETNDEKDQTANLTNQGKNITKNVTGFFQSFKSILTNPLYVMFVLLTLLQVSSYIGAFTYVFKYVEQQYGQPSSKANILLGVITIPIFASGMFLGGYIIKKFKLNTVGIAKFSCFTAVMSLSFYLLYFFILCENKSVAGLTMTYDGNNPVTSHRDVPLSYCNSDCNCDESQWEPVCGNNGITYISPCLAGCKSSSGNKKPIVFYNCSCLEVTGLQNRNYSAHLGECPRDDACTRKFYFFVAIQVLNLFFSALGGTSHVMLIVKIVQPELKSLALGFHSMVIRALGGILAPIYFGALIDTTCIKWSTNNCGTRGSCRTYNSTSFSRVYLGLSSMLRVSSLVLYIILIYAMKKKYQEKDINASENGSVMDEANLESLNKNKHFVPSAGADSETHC
Chain of CypF (P30405 30-207): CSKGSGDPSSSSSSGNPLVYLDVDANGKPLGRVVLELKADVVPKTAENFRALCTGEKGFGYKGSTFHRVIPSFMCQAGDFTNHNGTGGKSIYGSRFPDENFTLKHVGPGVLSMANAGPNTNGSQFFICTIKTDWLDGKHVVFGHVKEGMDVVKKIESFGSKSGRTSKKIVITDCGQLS
Chain of cyclophilin B (CypB) (P23284 34-216): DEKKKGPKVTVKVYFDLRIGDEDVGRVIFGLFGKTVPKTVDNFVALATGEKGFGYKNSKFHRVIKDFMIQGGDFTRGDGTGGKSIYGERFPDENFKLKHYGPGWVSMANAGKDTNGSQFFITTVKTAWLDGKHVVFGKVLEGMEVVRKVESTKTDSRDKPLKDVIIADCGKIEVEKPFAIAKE

| SMILES | CypA Kd (cyclophilin A (CypA)) | CypB Kd (cyclophilin B (CypB)) | CypF Kd (CypF) [nM] | IC50 [1, 4] [nM] | IC50 [2] [nM] | IC50 [3] [nM] | IC50 [1] [nM] |
| --- | --- | --- | --- | --- | --- | --- | --- |
| C/C=C/C[C@@H](C)[C@@H](O)[C@H]1C(=O)N[C@@H](CC)C(=O)N(C)[C@H](C)C(=O)N(C)[C@@H]([C@H](C)CN2CCC3(CC2)OCCO3)C(=O)N[C@@H](C(C)C)C(=O)N(C)[C@@H](CC(C)C)C(=O)N[C@@H](C)C(=O)N[C@H](C)C(=O)N(C)[C@@H](CC(C)C)C(=O)N(C)[C@@H](CC(C)C)C(=O)N(C)[C@@H](C(C)C)C(=O)N1C [Compound 2.5.28, 3-[D-Ala]-4-[(2S,3R)-3-methyl-2-(methylamino)-4-(1,4-dioxa-8-azaspiro[4.5]decan-8-yl)butanoyl]-cyclosporin] (cyclo(A[dA][NMeL][NMeL][NMeV][MeBmt][Abu][dNMeA][X35]V[NMeL])) | 1.4 | 0.8 | 0.8 | 17 | 6100 | 2100 | – |
| C/C=C/C[C@@H](C)[C@@H](O)[C@H]1C(=O)N[C@@H](CC)C(=O)N(C)[C@H](C)C(=O)N(C)[C@@H]([C@H](C)CN2CCNC(=O)C2)C(=O)N[C@@H](C(C)C)C(=O)N(C)[C@@H](CC(C)C)C(=O)N[C@@H](C)C(=O)N[C@H](C)C(=O)N(C)[C@@H](CC(C)C)C(=O)N(C)[C@@H](CC(C)C)C(=O)N(C)[C@@H](C(C)C)C(=O)N1C [Compound 2.5.30, 3-[D-Ala]-4-[(2S,3R)-3-methyl-2-(methylamino)-4-(3-oxopiperazin-1-yl)butanoyl]-cyclosporin] (cyclo(A[dA][NMeL][NMeL][NMeV][MeBmt][Abu][dNMeA][X50]V[NMeL])) | 1.7 | 1.0 | 1.1 | 204 | 34100 | 2100 | – |
| C/C=C/C[C@@H](C)[C@@H](O)[C@H]1C(=O)N[C@@H](CC)C(=O)N(C)[C@H](C)C(=O)N(C)[C@@H]([C@H](C)CN2CCN(C(=O)OCC)CC2)C(=O)N[C@@H](C(C)C)C(=O)N(C)[C@@H](CC(C)C)C(=O)N[C@@H](C)C(=O)N[C@H](C)C(=O)N(C)[C@@H](CC(C)C)C(=O)N(C)[C@@H](CC(C)C)C(=O)N(C)[C@@H](C(C)C)C(=O)N1C [Compound 2.5.31, 3-[D-Ala]-4-[(2S,3R)-4-(4-(ethoxycarbonyl)piperazin-1-yl)-3-methyl-2-(methylamino)butanoyl]-cyclosporin] (cyclo(A[dA][NMeL][NMeL][NMeV][MeBmt][Abu][dNMeA][X54]V[NMeL])) | 2.5 | 1.1 | 1.3 | 55 | 18900 | 2100 | – |
| C/C=C/C[C@@H](C)[C@@H](O)[C@H]1C(=O)N[C@@H](CC)C(=O)N(C)[C@H](C)C(=O)N(C)[C@@H]([C@H](C)CN2CCC3(COC3)C2)C(=O)N[C@@H](C(C)C)C(=O)N(C)[C@@H](CC(C)C)C(=O)N[C@@H](C)C(=O)N[C@H](C)C(=O)N(C)[C@@H](CC(C)C)C(=O)N(C)[C@@H](CC(C)C)C(=O)N(C)[C@@H](C(C)C)C(=O)N1C [Compound 2.5.33, 3-[D-Ala]-4-[(2S,3R)-3-methyl-2-(methylamino)-4-(2-oxa-6-azaspiro[3.4]octan-6-yl)butanoyl]-cyclosporin] (cyclo(A[dA][NMeL][NMeL][NMeV][MeBmt][Abu][dNMeA][X51]V[NMeL])) | 1.1 | 0.8 | 0.8 | 46 | 10300 | 2000 | – |
| C/C=C/C[C@@H](C)[C@@H](O)[C@H]1C(=O)N[C@@H](CC)C(=O)N(C)[C@H](C)C(=O)N(C)[C@@H]([C@H](C)COCC(=O)N2CCN(C3CCOCC3)CC2)C(=O)N[C@@H](C(C)C)C(=O)N(C)[C@@H](CC(C)C)C(=O)N[C@@H](C)C(=O)N[C@H](C)C(=O)N(C)[C@@H](CC(C)C)C(=O)N(C)[C@@H](CC(C)C)C(=O)N(C)[C@@H](C(C)C)C(=O)N1C [Compound 2.6.2, 3-[D-Ala]-4-[(2S,3S)-4-(2-(4-cyclohexylpiperazin-1-yl)-2-oxoethoxy)-3-methyl-2-(methylamino)butanoyl]-cyclosporin] (cyclo([MeBmt][Abu][dNMeA][X27]V[NMeL]A[dA][NMeL][NMeL][NMeV])) | 1.3 | 0.7 | 0.6 | – | 17300 | 3500 | 140 |
| C/C=C/C[C@@H](C)[C@@H](O)[C@H]1C(=O)N[C@@H](CC)C(=O)N(C)[C@H](C)C(=O)N(C)[C@@H]([C@H](C)COCCN2C[C@@H](C)OC[C@H]2C)C(=O)N[C@@H](C(C)C)C(=O)N(C)[C@@H](CC(C)C)C(=O)N[C@@H](C)C(=O)N[C@H](C)C(=O)N(C)[C@@H](CC(C)C)C(=O)N(C)[C@@H](CC(C)C)C(=O)N(C)[C@@H](C(C)C)C(=O)N1C [Compound 2.8.4, 3-[D-Ala]-4-[(2S,3S)-4-(2-((2R,5R)-2,5-dimethylmorpholino)ethoxy)-3-methyl-2-(methylamino)butanoyl]-cyclosporin] (cyclo(A[dA][NMeL][NMeL][NMeV][MeBmt][Abu][dNMeA][X61]V[NMeL])) | 0.9 | 0.7 | 0.7 | 45 | 10700 | 3600 | – |
| C/C=C/C[C@@H](C)[C@@H](O)[C@H]1C(=O)N[C@@H](CC)C(=O)N(C)[C@H](C)C(=O)N(C)[C@@H]([C@H](C)COCCN2CCN(C(C)C)CC2)C(=O)N[C@@H](C(C)C)C(=O)N(C)[C@@H](CC(C)C)C(=O)N[C@@H](C)C(=O)N[C@H](C)C(=O)N(C)[C@@H](CC(C)C)C(=O)N(C)[C@@H](CC(C)C)C(=O)N(C)[C@@H](C(C)C)C(=O)N1C [Compound 2.8.5, 3-[D-Ala]-4-[(2S,3S)-4-(2-(4-isopropylpiperazin-1-yl)ethoxy)-3-methyl-2-(methylamino)butanoyl]-cyclosporin] (cyclo(A[dA][NMeL][NMeL][NMeV][MeBmt][Abu][dNMeA][X78]V[NMeL])) | 0.6 | 0.5 | 0.4 | 98.9 | 8100 | 4400 | – |
| C/C=C/C[C@@H](C)[C@@H](O)[C@H]1C(=O)N[C@@H](CC)C(=O)N(C)[C@H](C)C(=O)N(C)[C@@H]([C@H](C)COCCN2CC[C@H](OC)C2)C(=O)N[C@@H](C(C)C)C(=O)N(C)[C@@H](CC(C)C)C(=O)N[C@@H](C)C(=O)N[C@H](C)C(=O)N(C)[C@@H](CC(C)C)C(=O)N(C)[C@@H](CC(C)C)C(=O)N(C)[C@@H](C(C)C)C(=O)N1C [Compound 2.8.7, 3-[D-Ala]-4-[(2S,3S)-4-(2-((S)-3-methoxypyrrolidin-1-yl)ethoxy)-3-methyl-2-(methylamino)butanoyl]-cyclosporin] (cyclo(A[dA][NMeL][NMeL][NMeV][MeBmt][Abu][dNMeA][X73]V[NMeL])) | 0.6 | 0.4 | 0.3 | 45 | 6800 | 5000 | – |
| C/C=C/C[C@@H](C)[C@@H](O)[C@H]1C(=O)N[C@@H](CC)C(=O)N(C)[C@H](C)C(=O)N(C)[C@@H]([C@H](C)CCC(C)(C)OC(=O)N2CCN(C)CC2)C(=O)N[C@@H](C(C)C)C(=O)N(C)[C@@H](CC(C)C)C(=O)N[C@@H](C)C(=O)N[C@H](C)C(=O)N(C)[C@@H](CC(C)C)C(=O)N(C)[C@@H](CC(C)C)C(=O)N(C)[C@@H](C(C)C)C(=O)N1C [Compound 2.12.2, 3-[D-Ala]-4-[(2S,3R)-3,6-dimethyl-2-(methylamino)-6-((4-methylpiperazine-1-carbonyl)oxy)heptanoyl]-cyclosporin] (cyclo(A[dA][NMeL][NMeL][NMeV][MeBmt][Abu][dNMeA][X75]V[NMeL])) | 22 | 6.8 | 10 | 180 | 11600 | 4700 | – |
| C/C=C/C[C@@H](C)[C@@H](O)[C@H]1C(=O)N[C@@H](CC)C(=O)N(C)[C@H](C)C(=O)N(C)[C@@H]([C@H](C)CCC(=O)N2CC3CCC(C2)O3)C(=O)N[C@@H](C(C)C)C(=O)N(C)[C@@H](CC(C)C)C(=O)N[C@@H](C)C(=O)N[C@H](C)C(=O)N(C)[C@@H](CC(C)C)C(=O)N(C)[C@@H](CC(C)C)C(=O)N(C)[C@@H](C(C)C)C(=O)N1C [Compound 2.14.2, 3-[D-Ala]-4-[(2S,3R)-6-(8-oxa-3-azabicyclo[3.2.1]octan-3-yl)-3-methyl-2-(methylamino)-6-oxohexanoyl]-cyclosporin] (cyclo(A[dA][NMeL][NMeL][NMeV][MeBmt][Abu][dNMeA][X45]V[NMeL])) | 2.4 | 0.9 | 1 | 75 | 6700 | 1900 | – |
| C/C=C/C[C@@H](C)[C@@H](O)[C@H]1C(=O)N[C@@H](CC)C(=O)N(C)[C@H](C)C(=O)N(C)[C@@H]([C@H](C)CCC(=O)N2CCN(C)CC2)C(=O)N[C@@H](C(C)C)C(=O)N(C)[C@@H](CC(C)C)C(=O)N[C@@H](C)C(=O)N[C@H](C)C(=O)N(C)[C@@H](CC(C)C)C(=O)N(C)[C@@H](CC(C)C)C(=O)N(C)[C@@H](C(C)C)C(=O)N1C [Compound 2.14.3, 3-[D-Ala]-4-[(2S,3R)-3-methyl-2-(methylamino)-6-(4-methylpiperazin-1-yl)-6-oxohexanoyl]-cyclosporin] (cyclo(A[dA][NMeL][NMeL][NMeV][MeBmt][Abu][dNMeA][X49]V[NMeL])) | 2.0 | 0.9 | 0.9 | 190 | 14100 | 5400 | – |
